Assay [1] is described as follows: (§1) Inhibition of D-DWEYS binding to mouse anti-dsDNA monoclonal antibody R4A pretreated for 1 hr followed by D-DWEYS peptide addition measured after 1 hr by ELISA. (In general: An ELISA detects its analyte on a solid surface through an enzyme-linked reagent.)
The species named for assay [2] is Mus musculus. The description is as §1.
The species entered for assay [3] is Mus musculus. The assay is described as follows: Inhibition of mouse glomerular binding to mouse anti-dsDNA monoclonal antibody R4A at 50 uM pretreated for 1 hr followed by glomerular addition by microscopic analysis.

Each structure is given as a SMILES string. Calls of active or inactive are those of the source. The calls are words filed in the database; no cut-off is given here.

What is called IC50 is the concentration needed to halve the response being measured. As to `CC(C)(C)NC(=O)[C@@H]1CC2CCCCC2CN1C[C@@H](O)[C@H](Cc1ccccc1)NC(=O)[C@H](CCN)NCc1ccc2ccccc2n1` (stereo partly drawn), the IC50 result in assay [1] is “Not Active”.

Take `CC(C)(C)NC(=O)[C@@H]1CC2CCCCC2CN1C[C@@H](O)[C@H](Cc1ccccc1)NC(=O)c1ccc2ccccc2c1` (stereo partly drawn): the concentration for half-maximal inhibition (IC50) in assay [1] (read-out: IC50) was above 100 µM.

Turning to `O=C(O)c1ccc2ccccc2n1` [QUINALDIC ACID], in assay [1], the IC50 result is “Not Active”.

For the compound `CC(C)(C)NC[C@@H]1CC2CCCCC2CN1C[C@@H](O)[C@H](Cc1ccccc1)NC[C@H](CCN)NCC1Nc2ccccc2CC1O` (stereo partly drawn), the 50% inhibitory concentration (IC50) in assay [1] (read-out: IC50) is 4.5 µM.

For the compound `CC(C)(C)NC[C@@H]1CC2CCCCC2CN1` (stereo partly drawn), the IC50 result in assay [1] is listed as “Not Active”.

On to `CC(C)(C)NC[C@@H]1CC2CCCCC2CN1C[C@@H](O)[C@H](Cc1ccccc1)NC[C@H](CCN)NC(=O)c1ccc2ccccc2n1` (stereo partly drawn), for which the IC50 in assay [1] (read-out: IC50) worked out at 7.3 µM.

As a reminder, the inhibition is the change of the read-out against control, counted positive when it falls. Take `CC(C)(C)NC[C@@H]1CC2CCCCC2CN1C[C@@H](O)[C@H](Cc1ccccc1)NC[C@H](CCN)NC(=O)c1ccc2ccccc2c1` (stereo partly drawn): the half-inhibitory concentration (IC50) in assay [1] (read-out: IC50) came to 3.7 µM. Further, in the assay listed under Mus musculus [2], the inhibition entry was “Dose-dependent effect”. Also, in the assay listed under Mus musculus [3], the inhibition result is “Active”.

As to `CC(C)(C)NC[C@@H]1CC2CCCCC2CN1C[C@@H](O)[C@@H](N)Cc1ccccc1` (stereo partly drawn), in the assay listed under Mus musculus [2] (concentration not given here), the inhibition was below 20%.

For the compound `CC(C)(C)NC[C@@H]1CC2CCCCC2CN1C[C@@H](O)[C@H](Cc1ccccc1)NC(=O)c1ccc2ccccc2n1` (stereo partly drawn), the 50% inhibitory concentration (IC50) in assay [1] (read-out: IC50) is 5.8 µM. Further, the inhibition result in the assay listed under Mus musculus [2] was “Dose-dependent effect”. Further, the inhibition result in the assay listed under Mus musculus [3] is “Active”.

`CC(C)(C)NC[C@@H]1CC2CCCCC2CN1C[C@@H](O)[C@H](Cc1ccccc1)NC[C@@H](N)CCN` (stereo partly drawn): the IC50 in assay [1] (read-out: IC50) was 27.3 µM.

Regarding `CC(C)(C)NC[C@@H]1CC2CCCCC2CN1C[C@@H](O)[C@H](Cc1ccccc1)NC[C@H](CCN)NCC1CCc2ccccc2N1` (stereo partly drawn), the IC50 in assay [1] (read-out: IC50) came out at 6.9 µM.

For the compound `NCC[C@@H](CN[C@H](CO)Cc1ccccc1)NCC1CCc2ccccc2N1` (stereo partly drawn), in assay [1], the concentration for half-maximal inhibition (IC50) result is on record as “Not Active”.

`CC(C)(C)NC[C@@H]1CC2CCCCC2CN1C[C@@H](O)[C@H](Cc1ccccc1)NC(=O)c1ccc2ccccc2c1` (stereo partly drawn): the IC50 in assay [1] (read-out: IC50) was 6.8 µM.

As for `CC(C)(C)NC[C@@H]1CC2CCCCC2CN1C[C@@H](O)[C@H](Cc1ccccc1)NC(=O)[C@H](CCN)NC(=O)c1nc2ccccc2cc1O` (stereo partly drawn), the 50% inhibitory concentration (IC50) in assay [1] (read-out: IC50) was found to be 19.7 µM.

In the case of `NCC[C@@H](CN[C@@H](Cc1ccccc1)[C@H](O)CN1CCOCC1)NC(=O)c1ccc2ccccc2c1`, the IC50 entry in assay [1] is recorded as “Not Active”.

On to `CC(C)(C)NC(=O)[C@@H]1CC2CCCCC2CN1C[C@@H](O)[C@H](Cc1ccccc1)NC(=O)c1ccc2ccccc2n1` (stereo partly drawn), for which the IC50 in assay [1] (read-out: IC50) amounted to 88.7 µM.

On to `OCC1Nc2ccccc2CC1O` (stereo not drawn), for which the IC50 result in assay [1] was “Not Active”.

Consider `CC(C)(C)NC[C@@H]1CC2CCCCC2CN1C[C@@H](O)[C@H](Cc1ccccc1)NC[C@H](CCN)NC(=O)C1CCCCN1` (stereo partly drawn), for which the IC50 in assay [1] (read-out: IC50) was 10 µM.

For the compound `CC(C)(C)NC[C@@H]1CC2CCCCC2CN1C[C@@H](O)[C@H](Cc1ccccc1)NC[C@H](CCN)NC(=O)c1ccccn1` (stereo partly drawn), the 50% inhibitory concentration (IC50) in assay [1] (read-out: IC50) came to 12.5 µM.

The values above are taken from ChEMBL document CHEMBL4043233, “A structural investigation of FISLE-412, a peptidomimetic compound derived from saquinavir that targets lupus autoantibodies” (Bioorg Med Chem Lett, 2017).
